Data set [1] can be described thus: Cytotoxicity. It counts as cell-based. Conditions: 129S2/SvPasCrl, mouse.
Data set [2] is described as follows: Cytotoxicity. It counts as cell-based. Conditions: human.
The target in data set [3] is T1, KIAA1718 Jumonji domain (residues 92–488) (Homo sapiens, UniProt Q6ZMT4).
T1 sequence (Q6ZMT4 92-488): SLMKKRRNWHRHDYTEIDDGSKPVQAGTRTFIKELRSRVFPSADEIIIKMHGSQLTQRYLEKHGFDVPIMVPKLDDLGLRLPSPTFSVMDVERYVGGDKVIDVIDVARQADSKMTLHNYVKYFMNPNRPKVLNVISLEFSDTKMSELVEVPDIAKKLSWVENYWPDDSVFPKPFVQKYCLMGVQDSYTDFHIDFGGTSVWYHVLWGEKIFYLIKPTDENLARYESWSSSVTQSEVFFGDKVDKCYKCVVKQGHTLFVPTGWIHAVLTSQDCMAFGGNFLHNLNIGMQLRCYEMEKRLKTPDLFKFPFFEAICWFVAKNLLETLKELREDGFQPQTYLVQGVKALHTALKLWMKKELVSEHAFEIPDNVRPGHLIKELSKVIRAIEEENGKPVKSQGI
Kind of data set: Mass-spectrometry-based demethylation inhibition assay, KIAA1718 Jumonji domain. It counts as biochemical.

In publication PMC3280428 (Journal of Molecular Biology, 2011) one finds CC50, IC50 and Ki data, which are given here for one compound.

Several values for one entry are separate records, joined by “and”; a condition that tells them apart may be missing. Equal entries are not always repeated.

The term CC50 denotes the concentration at which the toxic effect on the cells reaches its halfway point. Lower therefore signals harm at low concentration. The IC50 is the concentration at which inhibition is half-maximal. As usually defined, the Ki is a dissociation constant, usually derived from enzyme kinetics or from competition with a known ligand. High values mean a looser hold on the target, low ones a stronger hold on the target.

Take `COc1cc2nc(N3CCCN(C)CC3)nc(NC3CCN(Cc4ccccc4)CC3)c2cc1OC` [BIX-01294]: in data set [1], the CC50 at 24 h came to 7.4 µM. In data set [2], this compound showed a CC50 at 24 h of 3.2 µM. In data set [3], the IC50 was 16.5 µM and ~16.5 µM; the Ki is 15.3 µM.
